In patent publication US20150018411A1, “COMPOUNDS AS PPAR BETA/DELTA INHIBITORS FOR TREATING PPAR BETA/DELTA-MEDIATED DISEASES” (PHILIPPS-UNIVERSITAT MARBURG, priority 2011, published 2015):
Entries after “also recorded” stand apart in the source; their conditions may differ.

How the values were obtained:
GST-PPAR beta/delta LBD [1] = molecular target: T1, GST-PPAR beta/delta LBD (Homo sapiens, UniProt Q03181); assay: Ligand-induced binding of corepressor peptide SMRT-ID2, TR-FRET; type: biochemical; details: concentration dependent
T1 construct: GST-PPAR beta/delta LBD (GST=glutathione S-transferase); purchased Invitrogen, Darmstadt, Germany
T1 sequence (Q03181 211-439 limits assumed): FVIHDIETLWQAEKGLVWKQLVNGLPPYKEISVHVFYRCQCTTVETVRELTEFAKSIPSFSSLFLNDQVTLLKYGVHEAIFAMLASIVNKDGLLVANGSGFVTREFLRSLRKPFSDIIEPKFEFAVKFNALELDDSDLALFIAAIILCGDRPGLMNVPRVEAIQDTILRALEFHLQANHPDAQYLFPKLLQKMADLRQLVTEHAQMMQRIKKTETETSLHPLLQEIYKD
Experimental: FIG. 2: Induction of corepressor peptide binding to GST-PPAR beta/delta ligand binding domain (LBD) in vitro in dependency of the concentration of the substances of this invention comparative compound (CC) 2, compound 1 (A), compound 2 (B), compound 3 (C), compound 4 (D) and compound 5 (E). The interaction of fluorescein-labeled SMRT-ID2 peptide with recombinant GST-PPAR beta/delta LBD bound to a terbium-labeled anti-GST antibody is determined by TR-FRET analysis. Shown is the ratio of fluorescence intensity at 520 nm (fluorescein emission, excited by terbium emission) and 495 nm (terbium emission). All data points represent average values of triplicates (+/−standard deviation).
B) The ligand-induced binding of the commercially available fluorescein-labeled corepressor peptide SMRT-ID2 ([…]) (Invitrogen, Darmstadt, Germany) to GST-PPAR beta/delta is for example measured by TR-FRET analysis using a terbium-labeled anti-GST antibody in a VICTOR3V Multilabel Counter (WALLAC 1420; PerkinElmer Life and Analytical Sciences, Rodgau, Germany). The measurement is performed in a buffer composed of 100 mM KC, 20 mM Tris pH 7.9, 0.01% Triton X100 and 1 μg/μL bovine serum albumin.

ANGPTL4 gene expression [2] = assay: ANGPTL4 gene expression (qPCR) in WPMY-1 myofibroblasts; type: cell-based, human; details: Homo sapiens, 6 h; WPMY-1 cells, six hours treatment; read-out: IC50 (mean inhibitory concentration), endogenous ANGPTL4 expression
Experimental: (§1) FIG. 5: Influence of the substances of this invention comparative compound (CC) 2, compound 1, compound 5, compound 2 and compound 3 on ANGPTL4 gene expression. • (A) Comparison of relative ANGPTL4 expression, (B) mean inhibitory concentration of substances of this invention. (A) Human myofibroblasts (WPMY-1) are treated for 24 hours with the substances of this invention (1 μM), then RNA is isolated, the cDNA synthesized and analyzed by qPCR, normalized to L27 gene expression. (B) Titration of the effect of substances of this invention on the endogenous ANGPTL4 expression in WPMY-1 cells (left) or peritoneal mouse macrophages (right) after cells have been treated for six hours with the substances of this invention compound 1 and compound 2, respectively; RNA isolation, cDNA synthesis and qPCR as described for (A). The relative expression is calculated in relation to DMSO-treated cells. All values are average values of triplicates (+1-standard deviation). Asterisks (***, **, *) indicate significant differences to DMSO-treated cells (***: p<0.001 after t-test; *: p <0.05).
The influence of substances of this invention on PPAR-beta/delta regulated genes like for example ANGPTL4 which codes for the angiopoietin-like protein ANGPTL4 is assessed in different cells with a confluence of 70% to 80% in a 6-well cell culture plate. For this purpose, cultivated human myofibroblasts (WPMY-1), peritoneal mouse macrophages or cells of the human breast cancer cell line MDA-MB-231 are treated for 24 hours with 1 μM of the substances of this invention. Cells of the breast cancer cell line are in addition stimulated for 6 hours with TGF-beta2 (2 ng/ml) which is commercially available. Subsequently, RNA is isolated from the cells by procedures known to the expert and analyzed by quantitative PCR (qPCR, real time qPCR, RT-qPCR) also known to those skilled in the art. […]

ANGPTL4 gene expression [3] = assay: ANGPTL4 gene expression (qPCR) in peritoneal mouse macrophages; type: cell-based; details: Macrophage, 6 h, six hours treatment, read-out: IC50 (mean inhibitory concentration), endogenous ANGPTL4 expression
Experimental: as §1, with “All values are average values of triplicates (+1-standard deviation). Asterisks (***, **, *) indicate significant differences to DMSO-treated cells (***: p<0.001 after t-test; *: p <0.05).” left out
The influence of substances of this invention on PPAR-beta/delta regulated genes like for example ANGPTL4 which codes for the angiopoietin-like protein ANGPTL4 is assessed in different cells with a confluence of 70% to 80% in a 6-well cell culture plate. […] Subsequently, RNA is isolated from the cells by procedures known to the expert and analyzed by quantitative PCR (qPCR, real time qPCR, RT-qPCR) also known to those skilled in the art. […]

ANGPTL4 gene expression [4] = assay: ANGPTL4 expression (qPCR) in breast cancer cell line MDA-MB-231; type: cell-based, human; details: for TGF-beta2-induced ANGPTL4 expression: MDA-MB-231, 1 μM pre-treatment 24 hours, then TGF-beta2 2 ng/ml for 6 hours
Experimental: FIG. 6: Influence of the substances of this invention compound 1 and compound 5 on the induction of ANGPTL4 expression by TGF-beta2 in the breast cancer cell line MDA-MB-231. • The human breast cancer cell line MDA-MB-231 is pre-treated for 24 hours with 1 μM of the substances of this invention compound 1 or compound 5, respectively, and subsequently stimulated with TGF-beta2 (2 ng/ml) for 6 hours. The relative ANGPTL4 expression is determined by qPCR.
The influence of substances of this invention on PPAR-beta/delta regulated genes like for example ANGPTL4 which codes for the angiopoietin-like protein ANGPTL4 is assessed in different cells with a confluence of 70% to 80% in a 6-well cell culture plate. For this purpose, cultivated human myofibroblasts (WPMY-1), peritoneal mouse macrophages or cells of the human breast cancer cell line MDA-MB-231 are treated for 24 hours with 1 μM of the substances of this invention. Cells of the breast cancer cell line are in addition stimulated for 6 hours with TGF-beta2 (2 ng/ml) which is commercially available. Subsequently, RNA is isolated from the cells by procedures known to the expert and analyzed by quantitative PCR (qPCR, real time qPCR, RT-qPCR) also known to those skilled in the art. For this, cDNA is synthesized using 0.25 μg to 1 μg of RNA, oligo(dT)-primers and a commercially available cDNA synthesis kit. qPCR is then conducted in a Mx3000P RT-qPCR system (Stratagene, La Jolla, Calif., USA) according to the manufacturer's instructions with 40 cycles, an annealing temperature of 60° C., and for example human ANGPTL4 primers (fw: […]; rv: […]) and the ribosomal I27 (fw: […]; rv: […]) as normalizing gene known to the expert in this field. […] The respective IC50 value (mean inhibitory concentration) for substances of this invention compound 1 and compound 2 is depicted in FIG. 5 B and is maximal 20 nM in WPMY-1 cells and maximal 30 nM in peritoneal mouse macrophages, respectively.

GST-PPAR beta/delta LBD [5] = molecular target: T1, GST-PPAR beta/delta LBD; assay: Inhibition of compound 1-induced binding of corepressor peptide SMRT-ID2, TR-FRET; type: biochemical; details: 1 μM test substance, increasing concentrations of inverse agonist compound 1
Experimental: FIG. 3: Inhibition of agonist-induced co-activator peptide binding (A) and inverse agonist compound 1-induced corepressor peptide binding (B) by the substance of this invention compound 5. • The recruitment of the co-activator or corepressor peptide, respectively, is determined in a TR-FRET assay. As co-activator peptide, C33 is utilized, as corepressor peptide SMRT-ID2. The experiment is performed with a constant concentration of 1 μM of the substance of this invention compound 5 and increasing concentrations of the agonist L165041 (A) or the inverse agonist compound 1 (B), respectively.
C) The inhibition of the recruitment of co-activator peptide C33 known to the expert in this field mediated by PPAR beta/delta agonist L165,041 or the inhibition of the inverse agonist inventive compound 1-mediated binding of the corepressor peptide SMRT-ID2 to GST-PPAR beta/delta LBD by the substance of this invention compound 5 (1 μM) was also determined by TR-FRET measurements. Both is shown in FIGS. 3 A and B in dependency of the concentration of the agonist (A) and the inverse agonist (B), respectively.

Structure (SMILES): CCCCCCNc1ccc(NS(=O)(=O)c2ccsc2C(=O)OC)c(OC)c1 [compound 1, methyl 3-(N-(4-(hexylamino)-2-methoxyphenyl)sulfamoyl)thiophene-2-carboxylate]
- induction of interaction of PPAR beta/delta LBD with corepressor peptide SMRT-ID2 (GST-PPAR beta/delta LBD [1]): clearly demonstrate the interaction; also recorded: induce
- IC50 (ANGPTL4 gene expression [2]): ≤ 20 nM
- IC50 (ANGPTL4 gene expression [3]): ≤ 30 nM
- TGF-beta2-induced ANGPTL4 expression (ANGPTL4 gene expression [4]): loss of TGF-beta2-induced ANGPTL4 expression
- ANGPTL4 expression (ANGPTL4 gene expression [4]; breast cancer cell line MDA-MB-231-luc21H4): drastic reduction

Structure (SMILES): CCCCCCNc1ccc(NS(=O)(=O)c2ccsc2C(=O)OC)cc1OC [compound 2, methyl 3-(N-(4-(hexylamino)-3-methoxyphenyl)sulfamoyl)thiophene-2-carboxylate]
- induction of interaction of PPAR beta/delta LBD with corepressor peptide SMRT-ID2 (GST-PPAR beta/delta LBD [1]): clearly demonstrate the interaction; also recorded: induce
- IC50 (ANGPTL4 gene expression [2]): ≤ 20 nM
- IC50 (ANGPTL4 gene expression [3]): ≤ 30 nM

Structure (SMILES): COC(=O)c1sccc1S(=O)(=O)Nc1ccc(NC(C)(C)C)cc1OC [compound 5, methyl 3-(N-(4-(tert-butylamino)-2-methoxyphenyl)sulfamoyl)thiophene-2-carboxylate]
- inhibition of compound 1-mediated interaction of LBD with corepressor peptide SMRT-ID2 (GST-PPAR beta/delta LBD [5]): prevents
- TGF-beta2-induced ANGPTL4 expression (ANGPTL4 gene expression [4]): does not influence the induction of ANGPTL4 expression
